The source of these data is patent publication US9260376B2, “Compounds for use in the treatment of immune related inflammatory disease” (VENANTIUS LIMITED, priority 2011, dated 2016).

The subject of one assay is 5% DSS murine colitis. Briefly: DSS murine colitis, Experiment 2 (Method 2). Type of assay: in vivo, BDF1 male mice. The settings on record: 10 ml/kg oral gavage daily day 0-6, 5-ASA 100 mg/kg. How it is done: A total of 90 BDF1 (H. pylori-free, murine norovirus-free) male mice (Harlan Laboratories, UK) were used in the study. Animals were 8-10 weeks old on supply and used at 10-12 weeks of age. All mice were held in individually ventilated cages (IVCs) in an SPF (Specific Pathogen Free) barrier unit. The animals were identified by numbered cages and by ear punches.
DSS (MP Biomedicals 0216011090, lot# M2709) was prepared as a 5% (w/v) solution in the drinking water and made fresh daily on days 0 to 6 inclusive. DSS was administered from day 0 to day 7.
Test items were stored at −20° C. until the initiation of the study. Each test item was formulated as a homogenous suspension in 0.5% carboxymethyl cellulose (CMC, Sigma C4888) in sterile water (Sigma W3500, lot# RNBC1419), using an Ultraturax homogeniser, on study day −1. Compound 31 was formulated at 2 mg/ml and 47 was formulated at 4 mg/ml. After formulation the test item and the vehicle stocks anonymised with a letter code. All solutions were stored at 4° C. during the study, with 3.8 ml of each suspension being dispensed daily. Test items were administered by oral gavage, daily at 09.00 hrs, at 10 ml/kg, from study day 0 to study day 6.
5-ASA (5-Aminosalicylic acid, Sigma A3537, lot#051M1878V) was aliquoted into preweighed amounts between 71 and 84 mg. Like test item suspensions, these aliquots were anonymised by a letter code. Individual aliquots were formulated as a 10 mg/ml suspension in 0.5% CMC (Sigma C4888) in sterile water (Sigma W3500, lot# RNBC1419) on each day of dosing. 5-ASA was administered by oral gavage, daily at 09.00 hrs, at 10 ml/kg to give a dose of 100 mg/kg, from study day 0 to study day 6. 2.5 Clinical examinations
Any animal was culled if the weight loss was greater than 20%. Animal well-being was monitored daily. Once daily from day 0 until the end of the study, all mice were weighed and assessed for stool consistency, and the presence of overt blood in the stool or around the anus according to the criteria in 2.1
At necropsy, observation of stool in the large bowel was used to supplement in-life observation. […]

Assay [1] relates to IL2 release from Jurkat cells (T cell line Jurkat 6.1). Briefly: Effect of compounds on IL-2 secretion in T lymphocytes (anti-CD3/anti-CD28 stimulated, ELISA). The class given is cell-based. As to conditions: control inhibitors; plates 2 and 3. The procedure:
The T cell line Jurkat 6.1 (ATCC) was used. Cells were pre-treated for 30 min with 1 μM or 10 μM of the respective compound and then stimulated with plate-bound anti-CD3 (BD Pharmingen) and anti-CD28 (AnCell). DMSO was used as vehicle control. […] After 24 hs the supernatant was collected and IL-2 secretion was measured by ELISA.
Compounds were prepared by dissolution in DMSO to yield final concentrations of 1 and 10 μg/ml
(An ELISA detects its analyte on a solid surface through an enzyme-linked reagent.)

`O=C(Nc1ccc(O)c(C(=O)O)c1)c1ccc(C[C@@]2(C3=Cc4ccccc4C3)Cc3ccccc3[C@H]2O)cc1` [Compound 47, 2-hydroxy-5-(4-(((1S,2S)-1-hydroxy-2,3-dihydro-1H,1′H-[2,2′-biinden]-2-yl)methyl)benzamido)benzoic acid]: in the assay on 5% DSS murine colitis (31 at 2 mg/ml, 47 at 4 mg/ml), the “DAI at day 7 in comparison with vehicle” value is on record as “reduced DAI comparable or equal to 5ASA”. Besides, the “loss of body weight at day 7 in comparison with vehicle control” value in the assay on 5% DSS murine colitis (47 formulated at 4 mg/ml) is given as “does not result in an increase in loss of body weight”. In assay [1], `CN[C@@H]1C[C@H]2O[C@@](C)([C@@H]1OC)n1c3ccccc3c3c4c(c5c6ccccc6n2c5c31)C(=O)NC4` [Stauros] registered an IL-2 pg/ml of 117.75 pg/mL.
